≈ marks a conversion by molar mass, not a printed value.

What all share (type): functional
One experiment relates to KB. In words: Cytotoxicity against human KB cells. The settings on record: read-out: ED50 (the source's name).
The subject of experiment [1] is P388. In words: Cytotoxicity against mouse P388 cells. As to conditions: read-out: ED50 (the source's name).
The test system of experiment [2] is P388. The experiment in a line: Cytotoxicity against mouse P388 cells in in vivo based assay at 1.56 mg/kg relative to control.
In experiment [3] the test system is P388. The experiment in a line: Cytotoxicity against mouse P388 cells in in vivo based assay at 0.78 mg/kg relative to control.

With `CC[C@@]1(O)C(=O)OCc2c1cc1n(c2=O)Cc2cc3c(OC)cccc3nc2-1`, the EC50 with KB stood at 0.17 µg/mL (≈ 0.449 µM); in the experiment on P388 [1], 0.53 µg/mL (≈ 1.4 µM).
For the molecule `CC[C@@]1(O)C(=O)OCc2c1cc1n(c2=O)Cc2cc3ccccc3nc2-1` [CAMPTOTHECIN], the T/C in the experiment on P388 [2] came out at 181%; in the experiment on P388 [3] it was 175%.

The record behind these values is ChEMBL document CHEMBL1158653, “Plant anticancer agents X. Isolation of camptothecin and 9-methoxycamptothecin from Ervatamia heyneana” (1979).
